# Measurements: patent US10988478B1, “Pyrazolo[1,5a]pyrimidine derivatives as IRAK4 modulators” (Genentech, Inc., priority 2015, dated 2021)
# Biological target: human IRAK4 (Homo sapiens (Human), UniProt Q9NWZ3)
# Test: IRAK4 kinase inhibition, Transcreener fluorescence polarization ADP assay
# Format: biochemical
# Details: recombinant full-length His6-IRAK4; 125 uM ATP; 90 min; Ki computed using ATP Km 642 uM
# Protocol: Compounds were assayed for inhibition of human IRAK4 and IRAK1 catalytic activity using recombinant enzyme produced from insect cells. Full-length IRAK4 protein, carrying an N-terminal His6-Tag, was obtained from Life Technologies (Carlsbad, Calif., USA). The IRAK1 construct was produced internally and was comprised of IRAK1 residues Arg194 to Ser712, preceded by an NH2-terminal His6 tag and the coding sequence for glutathione-S-transferase.
# Sequence of human IRAK4 (Q9NWZ3 whole entry): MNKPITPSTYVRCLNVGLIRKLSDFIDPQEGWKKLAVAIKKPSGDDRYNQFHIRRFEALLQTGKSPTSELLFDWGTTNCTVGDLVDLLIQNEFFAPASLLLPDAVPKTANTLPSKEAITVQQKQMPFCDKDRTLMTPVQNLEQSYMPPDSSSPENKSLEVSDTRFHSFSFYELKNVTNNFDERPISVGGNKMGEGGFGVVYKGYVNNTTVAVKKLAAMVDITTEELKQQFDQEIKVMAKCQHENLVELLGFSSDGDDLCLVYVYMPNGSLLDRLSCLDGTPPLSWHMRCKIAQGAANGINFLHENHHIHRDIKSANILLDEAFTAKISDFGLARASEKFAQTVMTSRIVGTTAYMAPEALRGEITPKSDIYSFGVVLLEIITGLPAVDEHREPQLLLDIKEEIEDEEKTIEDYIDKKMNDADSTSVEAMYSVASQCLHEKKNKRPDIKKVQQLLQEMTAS
row,SMILES,Ki
1,"CC1(C)Cc2cc(NC(=O)c3cnn4cc(C5CC5)cnc34)c(N3CCOCC3)cc2O1 [Example 61, 6-Cyclopropyl-N-(2,2-dimethyl-6-morpholino-3H-benzofuran-5-yl)pyrazolo[1,5-a]pyrimidine-3-carboxamide]",35 nM
2,"CC1(C)Cc2cc(NC(=O)c3cnn4cccnc34)c(C3CCNCC3)cc2O1 [Example 62, N-[2,2-Dimethyl-6-(4-piperidyl)-3H-benzofuran-5-yl]pyrazolo[1,5-a]pyrimidine-3-carboxamide]",260 nM
3,"CN1CCC(c2cc3c(cc2NC(=O)c2cnn4cccnc24)CC(C)(C)O3)CC1 [Example 63, N-[2,2-Dimethyl-6-(1-methyl-4-piperidyl)-3H-benzofuran-5-yl]pyrazolo[1,5-a]pyrimidine-3-carboxamide]",390 nM
4,"CC1(C)Cc2cc(NC(=O)c3cnn4cccnc34)c(O[C@H]3CC[C@@H](O)CC3)cc2O1 [Example 64, Cis-N-[6-(4-hydroxycyclohexoxy)-2,2-dimethyl-3H-benzofuran-5-yl]pyrazolo[1,5-a]pyrimidine-3-carboxamide]",8.7 nM
5,"CC1(C)Cc2cc(NC(=O)c3cnn4cccnc34)c(O[C@H]3CC[C@H](O)CC3)cc2O1 [Example 65, Trans-N-[6-(4-hydroxycyclohexoxy)-2,2-dimethyl-3H-benzofuran-5-yl]pyrazolo[1,5-a]pyrimidine-3-carboxamide]",9.2 nM
6,"CC1(C)Cc2cc(NC(=O)c3cnn4cccnc34)c(N3CC(O)C(F)(F)C3)cc2O1 (stereo not drawn) [Example 68, N-(6-(3,3-Difluoro-4-hydroxypyrrolidin-1-yl)-2,2-dimethyl-2,3-dihydrobenzofuran-5-yl)pyrazolo[1,5-a]pyrimidine-3-carboxamide]",9.8 nM
7,"CC1(C)Cc2cc(NC(=O)c3cnn4cc(C(F)(F)F)cnc34)c(N3CCOCC3)cc2O1 [Example 69, N-(2,2-Dimethyl-6-morpholino-2,3-dihydrobenzofuran-5-yl)-6-(trifluoromethyl)pyrazolo[1,5-a]pyrimidine-3-carboxamide]",27 nM
8,"CC1(C)Cc2cc(NC(=O)c3cnn4cccnc34)c(OCC(F)(F)F)cc2O1 [Example 70, N-[2,2-Dimethyl-6-(2,2,2-trifluoroethoxy)-3H-benzofuran-5-yl]pyrazolo[1,5-a]pyrimidine-3-carboxamide]",28 nM
9,"C[C@]1(CO)Cc2cc(NC(=O)c3cnn4cccnc34)c(C(F)(F)F)cc2O1 [Example 71, N-[(2R)-2-(Hydroxymethyl)-2-methyl-6-(trifluoromethyl)-3H-benzofuran-5-yl]pyrazolo[1,5-a]pyrimidine-3-carboxamide]",920 nM
10,"C[C@@]1(CO)Cc2cc(NC(=O)c3cnn4cccnc34)c(C(F)(F)F)cc2O1 [Example 72, N-[(2S)-2-(hydroxymethyl)-2-methyl-6-(trifluoromethyl)-3H-benzofuran-5-yl]pyrazolo[1,5-a]pyrimidine-3-carboxamide]",450 nM
11,"C[C@@]1(CO)Cc2cc(NC(=O)c3cnn4cccnc34)c(C(F)F)cc2O1 [Example 73, N-[(2S)-6-(Difluoromethyl)-2-(hydroxymethyl)-2-methyl-3H-benzofuran-5-yl]pyrazolo[1,5-a]pyrimidine-3-carboxamide]",360 nM
12,"C[C@]1(CO)Cc2cc(NC(=O)c3cnn4cccnc34)c(C(F)F)cc2O1 [Example 74, N-[(2R)-6-(difluoromethyl)-2-(hydroxymethyl)-2-methyl-3H-benzofuran-5-yl]pyrazolo[1,5-a]pyrimidine-3-carboxamide]",750 nM

# Further lines, results first:
row,Ki,SMILES
1,24 nM,"C[C@]1(CO)Cc2cc(NC(=O)c3cnn4cccnc34)c(N3CCC(F)(F)C3)cc2O1 [Example 66, N-[(2R)-6-(3,3-Difluoropyrrolidin-1-yl)-2-(hydroxymethyl)-2-methyl-3H-benzofuran-5-yl]pyrazolo[1,5-a]pyrimidine-3-carboxamide]"
2,4.4 nM,"C[C@@]1(CO)Cc2cc(NC(=O)c3cnn4cccnc34)c(N3CCC(F)(F)C3)cc2O1 [Example 67, N-[(2S)-6-(3,3-Difluoropyrrolidin-1-yl)-2-(hydroxymethyl)-2-methyl-3H-benzofuran-5-yl]pyrazolo[1,5-a]pyrimidine-3-carboxamide]"
3,65 nM,"CC1(CO)Cc2cc(NC(=O)c3cnn4cc(C(F)F)cnc34)c(N3CCOCC3)cc2O1 (stereo not drawn) [Example 75, 6-(Difluoromethyl)-N-[2-(hydroxymethyl)-2-methyl-6-morpholino-3H-benzofuran-5-yl]pyrazolo[1,5-a]pyrimidine-3-carboxamide]"
4,25 nM,"C[C@]1(C(F)(F)F)Cc2cc(NC(=O)c3cnn4cccnc34)c(N3CCOCC3)cc2O1 [Example 76, (R)—N-(2-Methyl-6-morpholino-2-(trifluoromethyl)-2,3-dihydrobenzofuran-5-yl)pyrazolo[1,5-a]pyrimidine-3-carboxamide]"
5,13 nM,"C[C@@]1(C(F)(F)F)Cc2cc(NC(=O)c3cnn4cccnc34)c(N3CCOCC3)cc2O1 [Example 77, (S)—N-(2-methyl-6-morpholino-2-(trifluoromethyl)-2,3-dihydrobenzofuran-5-yl)pyrazolo[1,5-a]pyrimidine-3-carboxamide]"
6,34 nM,"C[C@]1(CO)Cc2cc(NC(=O)c3cnn4cccnc34)c(N3CCOCC3)c(Cl)c2O1 [Example 80, (R)—N-(7-Chloro-2-(hydroxymethyl)-2-methyl-6-morpholino-2,3-dihydrobenzofuran-5-yl)pyrazolo[1,5-a]pyrimidine-3-carboxamide]"
7,100 nM,"C[C@@]1(CO)Cc2cc(NC(=O)c3cnn4cccnc34)c(N3CCOCC3)c(Cl)c2O1 [Example 81, (S)—N-(7-chloro-2-(hydroxymethyl)-2-methyl-6-morpholino-2,3-dihydrobenzofuran-5-yl)pyrazolo[1,5-a]pyrimidine-3-carboxamide]"
8,190 nM,"CC1(C)COc2cc(N3CCOCC3)c(NC(=O)c3cnn4cccnc34)cc2N1 [Example 82, N-(3,3-Dimethyl-7-morpholino-3,4-dihydro-2H-benzo[b][1,4]oxazin-6-yl)pyrazolo[1,5-a]pyrimidine-3-carboxamide]"
9,62 nM,"Cc1c2c(cc(NC(=O)c3cnn4cccnc34)c1N1CCOCC1)C[C@](C)(CO)O2 [Example 83, (R)—N-(2-(Hydroxymethyl)-2,7-dimethyl-6-morpholino-2,3-dihydrobenzofuran-5-yl)pyrazolo[1,5-a]pyrimidine-3-carboxamide]"
10,24 nM,"Cc1c2c(cc(NC(=O)c3cnn4cccnc34)c1N1CCOCC1)C[C@@](C)(CO)O2 [Example 84, (S)—N-(2-(hydroxymethyl)-2,7-dimethyl-6-morpholino-2,3-dihydrobenzofuran-5-yl)pyrazolo[1,5-a]pyrimidine-3-carboxamide]"
11,17 nM,"CC(=O)c1cnc2c(C(=O)Nc3cc4c(cc3N3CCOCC3)O[C@@](C)(CO)C4)cnn2c1 [Example 85, (R)-6-Acetyl-N-(2-(hydroxymethyl)-2-methyl-6-morpholino-2,3-dihydrobenzofuran-5-yl)pyrazolo[1,5-a]pyrimidine-3-carboxamide]"
12,49 nM,"CC(=O)c1cnc2c(C(=O)Nc3cc4c(cc3N3CCOCC3)O[C@](C)(CO)C4)cnn2c1 [Example 86, (S)-6-Acetyl-N-(2-(hydroxymethyl)-2-methyl-6-morpholino-2,3-dihydrobenzofuran-5-yl)pyrazolo[1,5-a]pyrimidine-3-carboxamide]"
